Assay results from patent publication US8580825B2, “Oxadiazole inhibitors of leukotriene production” (Boehringer Ingelheim International GmbH, priority 2010, dated 2013).

Columns and labels:
[1] = tested on: synthesis of LTB4 in human whole blood; assay: human whole blood LTB4 production inhibition assay; assay type: cell-based; settings: calcimycin stimulated, read-out: hWB LTB4 IC50
Procedure: Compounds are additionally tested in a human whole blood assay to determine their ability to inhibit the synthesis of LTB4 in a cellular system. Compounds are combined with heparinized human whole blood and incubated for 15 minutes at 37° C. Calcimycin (20 μM final, prepared in phosphate-buffered saline, pH 7.4) is then added and the mixture is incubated for another 30 minutes at 37° C. The samples are centrifuged for 5 min at low speed (1500×g) and the plasma layer is removed. Plasma LTB4 concentrations are then measured using an antibody-based homogenous time-resolved fluorescence method (CisBio, Bedford, Mass.).

[2] = biological target: T1, recombinant human FLAP protein (Homo sapiens, UniProt P20292); assay: FLAP binding assay (Scintillation Proximity Assay, displacement of [125I]L-691,831); settings: read-out: FLAP SPA IC50
T1 construct: made in house; host or cells: Sf9 insect cells (100,000xg membrane fraction used)
T1 sequence (P20292 1-161): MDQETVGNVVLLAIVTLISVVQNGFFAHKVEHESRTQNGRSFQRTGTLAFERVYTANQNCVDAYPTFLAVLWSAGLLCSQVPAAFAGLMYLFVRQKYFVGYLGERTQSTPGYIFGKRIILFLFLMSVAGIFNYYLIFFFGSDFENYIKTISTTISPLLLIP
Procedure: Compounds are assessed for the ability to bind to FLAP in a binding assay that measures compound-specific displacement of an iodinated (^125I) FLAP inhibitor via a Scintillation Proximity Assay format (adapted from S. Charleson et al., Mol. Pharmacol., 1992, 41, 873-879).
Cell pellets produced from sf9 insect cells expressing recombinant human FLAP protein are resuspended in buffer A [15 mM Tris-HCl (pH 7.5), 2 mM MgCl2, 0.3 mM EDTA, 1 mM PMSF]. The cells are lysed with a Dounce homogenizer and the material is centrifuged at 10,000×g for 10 minutes. The supernatant is then collected and centrifuged at 100,000×g for 60 minutes. To prepare membrane protein for an assay, an aliquot of the 100,000×g pellet is resuspended in 1 ml of buffer A, Dounce homogenized, and finally subjected to polytron mixing (30 seconds). Membrane protein (25 μl, 5 μg) is mixed with WGA SPA beads (Amersham) and stirred for 1 h. […] (final concentrations: beads, 200 μg/well; protein, 5 μg/well; [^125I] probe, 0.08 nM/well (17 nCi/well). The plates are shaken for 2 h before reading on a Microbeta plate reader. Non-specific binding is determined by the addition of 10 μM cold L-691,831 compound.

IC50 [1] | IC50 [2] | Compound
100 nM | 7.9 nM | CCNc1cnc(-c2nc([C@](C)(c3ccc(-c4cnc(N)nc4)nc3)C(C)C)no2)cn1 [Example 40, 5-{5-[(2S)-2-{5-[5-(ethylamino)pyrazin-2-yl]-1,2,4-oxadiazol-3-yl}-3-methylbutan-2-yl]pyridin-2-yl}pyrimidin-2-amine]
210 nM | 8.3 nM | CCNc1ccc(-c2nc(C(C)(c3ccc(-c4cnc(N)nc4)nc3)C(C)C)no2)nn1 (stereo not drawn) [Example 42, 6-(3-{2-[6-(2-aminopyrimidin-5-yl)pyridin-3-yl]-3-methylbutan-2-yl}-1,2,4-oxadiazol-5-yl)-N-ethylpyridazin-3-amine]
98 nM | 5 nM | COCCOCCn1cc(-c2nc([C@@](C)(c3ccc(-c4cnc(N)nc4)nc3)C(C)C)no2)cn1 [Example 46, 5-{5-[(2R)-2-(5-{1-[2-(2-methoxyethoxy)ethyl]-1H-pyrazol-4-yl}-1,2,4-oxadiazol-3-yl)-3-methylbutan-2-yl]pyridin-2-yl}pyrimidin-2-amine]
110 nM | 9.5 nM | Cn1cc(-c2nc(C(C)(c3ccc(-c4cnc(N)nc4)nc3)C3CC3)no2)cn1 (stereo not drawn) [Example 50, 5-(5-{1-cyclopropyl-1-[5-(1-methyl-1H-pyrazol-4-yl)-1,2,4-oxadiazol-3-yl]ethyl}pyridin-2-yl)pyrimidin-2-amine]
270 nM | 14 nM | CC(C)[C@@](C)(c1ccc(-c2cnc(N)nc2)nc1)c1noc(-c2cnc(N3CCNCC3)cn2)n1 [Example 52, 5-{5-[(2S)-3-methyl-2-{5-[5-(piperazin-1-yl)pyrazin-2-yl]-1,2,4-oxadiazol-3-yl}butan-2-yl]pyridin-2-yl}pyrimidin-2-amine]
46 nM | 2.5 nM | COCCN(C)c1cnc(-c2nc([C@@](C)(c3ccc(-c4cnc(N)nc4)nc3)C(C)C)no2)cn1 [Example 55, 5-{5-[(2R)-2-(5-{5-[(2-methoxyethyl)(methyl)amino]pyrazin-2-yl}-1,2,4-oxadiazol-3-yl)-3-methylbutan-2-yl]pyridin-2-yl}pyrimidin-2-amine]
230 nM | 11.8 nM | COCCN(C)c1cnc(-c2nc([C@](C)(c3ccc(-c4cnc(N)nc4)nc3)C(C)C)no2)cn1 [Example 56, 5-{5-[(2S)-2-(5-{5-[(2-methoxyethyl)(methyl)amino]pyrazin-2-yl}-1,2,4-oxadiazol-3-yl)-3-methylbutan-2-yl]pyridin-2-yl}pyrimidin-2-amine]

The next lines start with the compound.

Compound | IC50 [1] | IC50 [2]
CC(C)[C@@](C)(c1ccc(-c2cnc(N)nc2)nc1)c1noc(-c2cnn(CC(C)(C)O)c2)n1 [Example 37, 1-[4-(3-{(2S)-2-[6-(2-aminopyrimidin-5-yl)pyridin-3-yl]-3-methylbutan-2-yl}-1,2,4-oxadiazol-5-yl)-1H-pyrazol-1-yl]-2-methylpropan-2-ol] | > 5000 nM | 168 nM
CC(C)[C@](C)(c1ccc(-c2cnc(N)nc2)nc1)c1noc(-c2cnn(CC(C)(C)O)c2)n1 [Example 38, 1-[4-(3-{(2R)-2-[6-(2-aminopyrimidin-5-yl)pyridin-3-yl]-3-methylbutan-2-yl}-1,2,4-oxadiazol-5-yl)-1H-pyrazol-1-yl]-2-methylpropan-2-ol] | 33 nM | 6.4 nM
CC(C)C(C)(c1ccc(-c2cnc(N)nc2)nc1)c1noc(-c2cnn(CC(C)(C)C(=O)O)c2)n1 (stereo not drawn) [Example 39, 3-[4-(3-{2-[6-(2-aminopyrimidin-5-yl)pyridin-3-yl]-3-methylbutan-2-yl}-1,2,4-oxadiazol-5-yl)-1H-pyrazol-1-yl]-2,2-dimethylpropanoic acid] | > 5000 nM | 20.4 nM
CCNc1cnc(-c2nc([C@@](C)(c3ccc(-c4cnc(N)nc4)nc3)C(C)C)no2)cn1 [Example 41, 5-{5-[(2R)-2-{5-[5-(ethylamino)pyrazin-2-yl]-1,2,4-oxadiazol-3-yl}-3-methylbutan-2-yl]pyridin-2-yl}pyrimidin-2-amine] | 34 nM | 1.8 nM
CC(C)[C@](C)(c1ccc(-c2cnc(N)nc2)nc1)c1noc(-c2cn[nH]c2)n1 [Example 43, 5-(5-{(2R)-3-methyl-2-[5-(1H-pyrazol-4-yl)-1,2,4-oxadiazol-3-yl]butan-2-yl}pyridin-2-yl)pyrimidin-2-amine] | 32 nM | 1.2 nM
CC(C)[C@](C)(c1ccc(-c2cnc(N)nc2)nc1)c1noc(-c2cnn(CC(F)F)c2)n1 [Example 44] | 24 nM | 0.9 nM
CC(C)[C@@](C)(c1ccc(-c2cnc(N)nc2)nc1)c1noc(-c2cnn(CC(F)F)c2)n1 [Example 45, 5-{5-[(2S)-2-{5-[1-(2,2-difluoroethyl)-1H-pyrazol-4-yl]-1,2,4-oxadiazol-3-yl}-3-methylbutan-2-yl]pyridin-2-yl}pyrimidin-2-amine] | 1400 nM | 141 nM
COCCOCCn1cc(-c2nc([C@](C)(c3ccc(-c4cnc(N)nc4)nc3)C(C)C)no2)cn1 [Example 47, 5-{5-[(2S)-2-(5-{1-[2-(2-methoxyethoxy)ethyl]-1H-pyrazol-4-yl}-1,2,4-oxadiazol-3-yl)-3-methylbutan-2-yl]pyridin-2-yl}pyrimidin-2-amine] | 2000 nM | 180 nM
CC(C)[C@](C)(c1ccc(-c2cnc(N)nc2)nc1)c1noc(-c2cnn(CCF)c2)n1 [Example 48, 5-{5-[(2R)-2-{5-[1-(2-fluoroethyl)-1H-pyrazol-4-yl]-1,2,4-oxadiazol-3-yl}-3-methylbutan-2-yl]pyridin-2-yl}pyrimidin-2-amine] | 20 nM | 2.6 nM
CC(C)[C@@](C)(c1ccc(-c2cnc(N)nc2)nc1)c1noc(-c2cnn(CCF)c2)n1 [Example 49, 5-{5-[(2S)-2-{5-[1-(2-fluoroethyl)-1H-pyrazol-4-yl]-1,2,4-oxadiazol-3-yl}-3-methylbutan-2-yl]pyridin-2-yl}pyrimidin-2-amine] | 1100 nM | 80.9 nM
CC(C)[C@](C)(c1ccc(-c2cnc(N)nc2)nc1)c1noc(-c2cnc(N3CCNCC3)cn2)n1 [Example 51, 5-{5-[(2R)-3-methyl-2-{5-[5-(piperazin-1-yl)pyrazin-2-yl]-1,2,4-oxadiazol-3-yl}butan-2-yl]pyridin-2-yl}pyrimidin-2-amine] | 160 nM | 3 nM
CNC(=O)Cn1cc(-c2nc([C@@](C)(c3ccc(-c4cnc(N)nc4)nc3)C(C)C)no2)cn1 [Example 53, 2-[4-(3-{(2R)-2-[6-(2-aminopyrimidin-5-yl)pyridin-3-yl]-3-methylbutan-2-yl}-1,2,4-oxadiazol-5-yl)-1H-pyrazol-1-yl]-N-methylacetamide] | 230 nM | 12.7 nM
CNC(=O)Cn1cc(-c2nc([C@](C)(c3ccc(-c4cnc(N)nc4)nc3)C(C)C)no2)cn1 [Example 54, 2-[4-(3-{(2S)-2-[6-(2-aminopyrimidin-5-yl)pyridin-3-yl]-3-methylbutan-2-yl}-1,2,4-oxadiazol-5-yl)-1H-pyrazol-1-yl]-N-methylacetamide] | 750 nM | 70.7 nM
Cn1cc(-c2nc([C@@](C)(c3ccc(-c4cnc(N)nc4)nc3)C3CC3)no2)cn1 [Example 57, 5-(5-{(1R)-1-cyclopropyl-1-[5-(1-methyl-1H-pyrazol-4-yl)-1,2,4-oxadiazol-3-yl]ethyl}pyridin-2-yl)pyrimidin-2-amine] | 33 nM | 16 nM
